{"source": "patent US20180057462A1", "about": "“Substituted 2-difluoromethyl-nicotin(thio)carboxanilide derivatives and their use as fungicides” (BAYER CROPSCIENCE AKTIENGESELLSCHAFT, priority 2015, published 2018)"}
{"experiment": "LogP by HPLC on reversed phase columns (EEC directive 79/831 Annex V.A8), method [a]", "assay_type": "physicochemical", "details": "LC-UV, acidic range, 0.1% formic acid in water and acetonitrile as eluent (linear gradient 10% to 95% acetonitrile)"}
{"smiles": "Cc1c(NC(=O)c2cccnc2C(F)F)cccc1OCCc1ccccc1C(F)(F)F", "note": "[Example 59]", "LogP[a]": 3.74}
{"smiles": "Cc1c(NC(=O)c2cccnc2C(F)F)cccc1OCCc1cccc(C(F)(F)F)c1", "note": "[Example 60]", "LogP[a]": 3.68}
{"smiles": "Cc1c(NC(=O)c2cccnc2C(F)F)cccc1OCCc1cccc(F)c1", "note": "[Example 61]", "LogP[a]": 3.29}
{"smiles": "Cc1c(NC(=O)c2cccnc2C(F)F)cccc1OCCc1ccccc1F", "note": "[Example 62]", "LogP[a]": 3.31}
{"smiles": "Cc1c(NC(=O)c2cccnc2C(F)F)cccc1OCCc1ccc(F)cc1", "note": "[Example 63]", "LogP[a]": 3.29}
{"smiles": "Cc1c(NC(=O)c2cccnc2C(F)F)cccc1OCCc1ccccc1Cl", "note": "[Example 64]", "LogP[a]": 3.65}
{"smiles": "Cc1c(NC(=O)c2cccnc2C(F)F)cccc1OCCc1cccc(Cl)c1", "note": "[Example 65]", "LogP[a]": 3.61}
{"smiles": "Cc1c(NC(=O)c2cccnc2C(F)F)cccc1OCCc1ccc(Cl)cc1", "note": "[Example 66]", "LogP[a]": 3.68}
{"smiles": "Cc1c(NC(=O)c2cccnc2C(F)F)cccc1OC(C)Cc1ccc(Cl)cc1", "note": "(centres unmarked) [Example 67]", "LogP[a]": 3.90}
{"smiles": "Cc1c(NC(=O)c2cccnc2C(F)F)cccc1OC(C)Cc1cccc(Cl)c1", "note": "(centres unmarked) [Example 68]", "LogP[a]": 3.85}
{"smiles": "Cc1c(NC(=O)c2cccnc2C(F)F)cccc1OC(C)Cc1ccccc1Cl", "note": "(centres unmarked) [Example 69]", "LogP[a]": 3.90}
{"smiles": "Cc1c(NC(=O)c2cccnc2C(F)F)cccc1OC(C)CSc1ccccc1", "note": "(centres unmarked) [Example 70]", "LogP[a]": 3.65}
{"smiles": "Cc1c(NC(=O)c2cccnc2C(F)F)cccc1OCc1cccs1", "note": "[Example 71]", "LogP[a]": 2.82}
{"smiles": "Cc1c(NC(=O)c2cccnc2C(F)F)cccc1OC(C)Cc1cccs1", "note": "(centres unmarked) [Example 72]", "LogP[a]": 3.37}
{"smiles": "Cc1c(NC(=O)c2cccnc2C(F)F)cccc1OCc1ccc(C(F)(F)F)cc1", "note": "[Example 73]", "LogP[a]": 3.57}
{"smiles": "Cc1c(CCC(C)(C)C)cccc1NC(=O)c1cccnc1C(F)F", "note": "[Example 74]", "LogP[a]": 3.92}
{"smiles": "Cc1c(NC(=O)c2cccnc2C(F)F)cccc1OC1CCCC1", "note": "[Example 75]", "LogP[a]": 3.21}
{"smiles": "Cc1c(NC(=O)c2cccnc2C(F)F)cccc1OCC=C(Cl)Cl", "note": "[Example 76]", "LogP[a]": 3.21}
{"smiles": "Cc1c(NC(=O)c2cccnc2C(F)F)cccc1OCC1CCCCC1", "note": "[Example 77]", "LogP[a]": 4.14}
{"smiles": "Cc1c(NC(=O)c2cccnc2C(F)F)cccc1OCCC(C)(C)C", "note": "[Example 78]", "LogP[a]": 3.85}
{"smiles": "Cc1c(NC(=O)c2cccnc2C(F)F)cccc1C1CCCCO1", "note": "(centres unmarked) [Example 80]", "LogP[a]": 2.53}
{"smiles": "Cc1c(NC(=O)c2cccnc2C(F)F)cccc1C1CC2CCC1C2", "note": "(centres unmarked) [Example 81]", "LogP[a]": 3.80}
{"smiles": "Cc1c(NC(=O)c2cccnc2C(F)F)cccc1C1CCCO1", "note": "(centres unmarked) [Example 82]", "LogP[a]": 2.02}
{"smiles": "CCCC(CC)Oc1cccc(NC(=O)c2cccnc2C(F)F)c1C", "note": "(centres unmarked) [Example 83]", "LogP[a]": 3.94}
{"smiles": "Cc1c(NC(=O)c2cccnc2C(F)F)cccc1OC(C)CC(C)(C)C", "note": "(centres unmarked) [Example 84]", "LogP[a]": 4.21}
{"smiles": "Cc1c(NC(=O)c2cccnc2C(F)F)cccc1OC(C)C1CCCC1", "note": "(centres unmarked) [Example 85]", "LogP[a]": 4.06}
{"smiles": "CCCCC(C)Oc1cccc(NC(=O)c2cccnc2C(F)F)c1C", "note": "(centres unmarked) [Example 86]", "LogP[a]": 3.94}
{"smiles": "Cc1c(NC(=O)c2cccnc2C(F)F)cccc1OC(C)CCC(C)C", "note": "(centres unmarked) [Example 87]", "LogP[a]": 4.26}
{"smiles": "Cc1c(NC(=O)c2cccnc2C(F)F)cccc1OC(C)Cc1ccccc1", "note": "(centres unmarked) [Example 88]", "LogP[a]": 3.62}
{"smiles": "Cc1c(NC(=O)c2cccnc2C(F)F)cccc1OC(C)c1ccccc1", "note": "(centres unmarked) [Example 89]", "LogP[a]": 3.33}
{"smiles": "Cc1c(COC(C)C)cccc1NC(=O)c1cccnc1C(F)F", "note": "[Example 90]", "LogP[a]": 2.43}
{"smiles": "O=C(Nc1cccc(OC2CCCC2)c1C(F)(F)F)c1cccnc1C(F)F", "note": "[Example 91]", "LogP[a]": 3.33}
{"smiles": "CCC(CC)Oc1cccc(NC(=O)c2cccnc2C(F)F)c1C(F)(F)F", "note": "[Example 92]", "LogP[a]": 3.55}
{"smiles": "CCCC(CC)Oc1cccc(NC(=O)c2cccnc2C(F)F)c1C(F)(F)F", "note": "(centres unmarked) [Example 93]", "LogP[a]": 3.92}
{"smiles": "CCC(C)Oc1cccc(NC(=O)c2cccnc2C(F)F)c1C(F)(F)F", "note": "(centres unmarked) [Example 94]", "LogP[a]": 3.17}
{"smiles": "CCC(C)Oc1cccc(NC(=O)c2cc(C)cnc2C(F)F)c1C(F)(F)F", "note": "(centres unmarked) [Example 95]", "LogP[a]": 3.44}
{"smiles": "CCC(C)Oc1cccc(NC(=O)c2ccc(Cl)nc2C(F)F)c1C(F)(F)F", "note": "(centres unmarked) [Example 96]", "LogP[a]": 3.83}
{"smiles": "CC(C)Oc1cccc(NC(=O)c2ccc(Cl)nc2C(F)F)c1C(F)(F)F", "note": "[Example 97]", "LogP[a]": 3.46}
{"smiles": "Cc1cnc(C(F)F)c(C(=O)Nc2cccc(OC(C)C)c2C(F)(F)F)c1", "note": "[Example 98]", "LogP[a]": 3.04}
{"smiles": "CC(C)Oc1cccc(NC(=O)c2cccnc2C(F)F)c1C(F)(F)F", "note": "[Example 99]", "LogP[a]": 2.80}
{"smiles": "O=C(Nc1cccc(OCc2ccccc2)c1C(F)(F)F)c1cccnc1C(F)F", "note": "[Example 100]", "LogP[a]": 3.13}
{"smiles": "CC(Oc1cccc(NC(=O)c2cccnc2C(F)F)c1C(F)(F)F)c1ccccc1", "note": "(centres unmarked) [Example 101]", "LogP[a]": 3.42}
{"smiles": "Cc1cnc(C(F)F)c(C(=O)Nc2cccc(OC(C)c3ccccc3)c2C(F)(F)F)c1", "note": "(centres unmarked) [Example 102]", "LogP[a]": 3.69}
{"smiles": "CC(Oc1cccc(NC(=O)c2ccc(Cl)nc2C(F)F)c1C(F)(F)F)c1ccccc1", "note": "(centres unmarked) [Example 103]", "LogP[a]": 4.03}
{"smiles": "Cc1c(NC(=O)c2cccnc2C(F)F)cccc1N1CCCC1", "note": "[Example 104]", "LogP[a]": 0.79}
{"smiles": "Cc1c(NC(=O)c2cccnc2C(F)F)cccc1S(=O)(=O)C1CCCC1", "note": "[Example 105]", "LogP[a]": 2.21}
{"smiles": "CCC(CC)Nc1cccc(NC(=O)c2cccnc2C(F)F)c1C", "note": "[Example 106]", "LogP[a]": 2.86}
{"smiles": "Cc1c(NC(=O)c2cccnc2C(F)F)cccc1NC1CCCC1", "note": "[Example 107]", "LogP[a]": 2.17}
{"smiles": "Cc1c(NC(=O)c2cccnc2C(F)F)cccc1N(C)C", "note": "[Example 108]", "LogP[a]": 0.45}
{"smiles": "Cc1c(NC(=O)c2cccnc2C(F)F)cccc1N(C)C1CCCC1", "note": "[Example 109]", "LogP[a]": 1.39}
{"smiles": "Cc1ccc(-c2cccc(NC(=O)c3cccnc3C(F)F)c2C)s1", "note": "[Example 111]", "LogP[a]": 3.19}
{"smiles": "Cc1nc(C)c(-c2cccc(NC(=O)c3cccnc3C(F)F)c2C)s1", "note": "[Example 112]", "LogP[a]": 1.98}
{"smiles": "Cc1c(NC(=O)c2cccnc2C(F)F)cccc1-c1cnn(C(C)C)c1", "note": "[Example 113]", "LogP[a]": 2.17}
{"smiles": "Cc1c(NC(=O)c2cccnc2C(F)F)cccc1-c1csc(C(C)C)n1", "note": "[Example 114]", "LogP[a]": 2.94}
{"smiles": "Cc1c(NC(=O)c2cccnc2C(F)F)cccc1OC(C)c1ccc(Cl)cc1Cl", "note": "(centres unmarked) [Example 115]", "LogP[a]": 4.41}
{"smiles": "Cc1c(NC(=O)c2cccnc2C(F)F)cccc1C1CCCCC1(C)C", "note": "(centres unmarked) [Example 116]", "LogP[a]": 4.31}
{"smiles": "Cc1c(NC(=O)c2cccnc2C(F)F)cccc1OC(C)(C)C(C)C", "note": "[Example 117]", "LogP[a]": 3.61}
{"smiles": "CCOc1cccc(NC(=O)c2cccnc2C(F)F)c1C", "note": "[Example 118]", "LogP[a]": 2.34}
{"smiles": "Cc1c(NC(=O)c2cccnc2C(F)F)cccc1OCC(F)(F)F", "note": "[Example 119]", "LogP[a]": 2.55}
{"smiles": "Cc1c(NC(=O)c2cccnc2C(F)F)cccc1OCCC(F)(F)F", "note": "[Example 120]", "LogP[a]": 2.68}
{"smiles": "Cc1c(NC(=O)c2cccnc2C(F)F)cccc1C1CCCC1", "note": "[Example 121]", "LogP[a]": 3.25}
{"smiles": "Cc1c(NC(=O)c2cccnc2C(F)F)cccc1C1CC1", "note": "[Example 122]", "LogP[a]": 2.43}
{"smiles": "Cc1c(NC(=O)c2c(C(F)F)ccnc2C(F)F)cccc1OC1CCCC1", "note": "[Example 123]", "LogP[a]": 3.70}
{"experiment": "LogP by HPLC on reversed phase columns (EEC directive 79/831 Annex V.A8), method [a]", "assay_type": "physicochemical", "details": "reversed phase HPLC column; LC-UV, acidic range, 0.1% formic acid in water and acetonitrile as eluent (linear gradient 10% to 95% acetonitrile)"}
{"smiles": "CCCC(C)Oc1cccc(NC(=O)c2cccnc2C(F)F)c1C", "note": "(centres unmarked) [Example 79, 2-(difluoromethyl)-N-[2-methyl-3-(pentan-2-yloxy)phenyl]nicotinamide]", "chromatographic logP": 3.48}
{"smiles": "Cc1c(NC(=O)c2cccnc2C(F)F)cccc1-c1cncc(C(F)(F)F)c1", "note": "[Example 110, 2-(difluoromethyl)-N-{2-methyl-3-[5-(trifluoromethyl)pyridin-3-yl]phenyl}nicotinamide]", "chromatographic logP": 2.6}
